# Several values for one entry are separate records, joined by “and”; a condition that tells them apart may be missing. Equal entries are not always repeated. Where two headings read alike, the source gives them in different places.
# Experiments:
# [1] = system: Pancreatic Ductal Adenocarcinoma 03; test: Evaluation against early stage Pancreatic Ductal Adenocarcinoma 03 in female BDF1 mice (Table 4); assay type: in vivo, mouse
# Source text: The higher dose requirement for compound 14e may be a disadvantage over compound 11b (Cage 14).
# [2] = system: Mammary Adenocarcinoma 17/ADR; test: Evaluation against early stage Mammary Adenocarcinoma 17/ADR, C3H/He females (Table 3); assay type: in vivo; details: for % Body Wt Loss at Nadir / % T/C mass / Day of Nadir / Drug Deaths / Growth Delay / Log Kill / Median Tumor Mass on Day 9 (Range) / Tumor Free day-21 / Activity Rating: PO
# [3] = system: Pancreatic Adenocarcinoma 03; test: Evaluation against early stage Pancreatic Adenocarcinoma 03 in BDF1 male mice (Table 1); assay type: in vivo, mouse; details: PO, QD3–6, 9–11, BID 7–8
# Human Melanoma LOX = details: Cage 3; IV; qd 1–6, BID 7; total 700 mg/kg
# [4] = system: Pancreatic Ductal Adenocarcinoma #03
# Source text: Pancreatic ductal adenocarcinoma-03, mammary adenocarcinoma-16/C, mammary adenocarcinoma-17/Adr, and human melanoma LOX were used in the studies. Tumors were maintained in the mouse strain of origin (C57B1/6 for Panc-03 and C3H for the mammary tumors). Balb/c SCID mice (B and T cell deficient) were used for tumor maintenance and chemotherapy trials involving the human melanoma LOX. Tumors were transplanted into the appropriate F1 hybrid (B6D2F1=C57B 1/6 female× DBA/2 male) or the strain of origin for the chemotherapy trials. Individual mouse body weights for each experiment were within 5 grams, and all mice were over 17 grams at the start of therapy. The mice were supplied food and water ad libitum.
# Animals were pooled, implanted subcutaneously with 30 to 60 mg tumor fragments by a 12 gauge trocar on day 0, and again pooled before unselective distribution to the various treatment and control groups. For early stage treatment, chemotherapy was started within 1 to 3 days after tumor implantation while the number of cells was relatively small (10^7 to 10^8 cells). For upstaged or advanced staged trials, the tumors were allowed to grow for five or more days before treatment was started. Tumors were measured with a caliper twice weekly. […] Tumor weights are estimated from two-dimensional measurements:
# Tumor weight (in mg)=(a×b^2)/2, where a and b are the tumor length and width in (mm), respectively.
# a) Tumor growth delay (T−C value), where T is the median time (in days) required for the treatment group tumors to reach a predetermined size (e.g., 1,000 mg), and C is the median time (in days) for the control group tumors to reach the same size. Tumor-free survivors were are excluded from these calculations (cures are tabulated separately). This value is an important criterion of anti-tumor effectiveness because it allows the quantification of tumor cell kill.
# b) Calculation of tumor cell kill for subcutaneously (SC) growing tumors. […] The conversion of the T−C values to log10 cell kill is possible because the Td of tumors re-growing post treatment (Rx) approximates the Td values of the tumors in untreated control mice.
# In selected cases, both for historic in vivo evaluation data as well as data presented here, it is of value to compare log kill numbers from trials of markedly different testing schedules. […] It should be noted that an activity rating of +++ to ++++ is needed to effect partial regression (PR) or complete regression (CR) of 100 to 300 mg size masses of most transplanted solid tumors of mice. Thus, an activity rating of + or ++ would not be scored as active by usual clinical criteria. A PR is a reduction in tumor mass to less than 50% of pretreatment size. A CR is a reduction in tumor mass to below palpable size (i.e., reduction to zero detectable mass).
# The T/C value in percent is an indication of anti-tumor effectiveness: A T/C=0% means no tumor growth. A T/C=100% means no anti-tumor activity, i.e., the treated and control tumors grew equally. […] A T/C value<10% is considered to indicate highly significant anti-tumor activity, and is the level used by NCI to justify a clinical trial if toxicity, formulation, and certain other requirements are met (termed DN-2 level activity).
# Compounds as their sodium salts were prepared in a 1% sodium bicarbonate solution, H2O or phosphate buffered saline (PBS), with pH adjusted to 7.0 to 7.5 with HCl, and administered intravenously (IV) or orally (PO), at injection volumes of 0.2 mL per injection.
# [5] = system: Mammary Adenocarcinoma 16/C; details: Cage 2, IV, BID 1–5, total 600 mg/kg
# Source text: Table 7. […] The animal was then re-implanted with Mam16/C/71.
# [6] = Cage 14, IV, 48 mg/kg/inj QD 3–9, total 336 mg/kg
# [7] = IV, short, dose-intense schedule BID-1–3, 162 mg/kg total dose
# [8] = Cage 5, 145 mg/kg/inj QD-1–3 and 7–9, total 870 mg/kg
# [9] = Cage 6, 90 mg/kg/inj QD-1–3 and 7–9, total 540 mg/kg
# [10] = Cage 7, 55.8 mg/kg/inj QD-1–3 and 7–9, total 334.8 mg/kg
# [11] = Cage 8, 34.6 mg/kg/inj QD-1–3, 145 mg/kg/inj QD-7–9, total 538.8 mg/kg
# [12] = Cage 2, PO, 120 mg/kg/inj 2×/day days 3–9, total 1680 mg/kg
# [13] = Cage 3, PO, 60 mg/kg/inj 2×/day days 3–9, total 840 mg/kg
# [14] = Cage 4, PO, 30 mg/kg/inj 2×/day days 3–9, total 420 mg/kg
# [15] = Cage 3, IV-SC, qd 3–5, 8–11, BID 6, 7, total 780 mg/kg
# [16] = Cage 4, IV-SC, qd 3–5, 8–11, BID 6, 7, total 390 mg/kg
# [17] = Cage 5, IV, qd 3, 4, total 30 mg/kg
compound,measurement,setting,value
CC(Oc1ccc(Oc2ccc3ccc(Cl)cc3n2)cc1)C(=O)O (stereo not drawn) [Compound 11b],% Body Wt Loss at Nadir,[1]; [6],−8.9%
same,% T/C mass,[1]; [6],0%
same,Activity Rating,[1]; [6],+++ (2.0–2.8)
same,Day of Nadir,[1]; [6],11 days
same,Drug Deaths,[1]; [6],0/5
same,Growth Delay,[1]; [6],17.5 days
same,Log Kill,[1]; [6],2.6
same,Median Tumor Mass on Day 14 (Range),[1]; [6],0
same,Tumor Free day-37,[1]; [6],0/5
same,day of full body weight recovery,[1]; [6],~15 days
"COc1c(Cl)ccc2ccc(Oc3ccc(OC(C)C(=O)O)cc3)nc12 (stereo not drawn) [Compound 13a, reference compound]",T/C,[2]; [7],7%
same,log kill,[2]; [7],1.5
CC(Oc1ccc(Oc2cnc3ccc(Cl)cc3n2)cc1)C(N)=O (stereo not drawn) [Compound 14a],Day of Wt. Loss Nadir,"[3]; Cage 5, total 1,320 mg/kg",8 days
same,Drug Deaths (days of death),"[3]; Cage 5, total 1,320 mg/kg",0/5
same,Log Kill,"[3]; Cage 5, total 1,320 mg/kg",1.9
same,Mean Body Wt. Loss in g/mouse,"[3]; Cage 5, total 1,320 mg/kg",−0.8 g/mouse
same,Median tumor burden in mg on day 14 (range),"[3]; Cage 5, total 1,320 mg/kg",126 mg
same,Percent Body Wt. Loss,"[3]; Cage 5, total 1,320 mg/kg",−3.6%
same,T-C,"[3]; Cage 5, total 1,320 mg/kg",12 days
same,T/C %,"[3]; Cage 5, total 1,320 mg/kg",7.3%
same,Time to 1000 mg days (range),"[3]; Cage 5, total 1,320 mg/kg",23 days
same,Tumor Free on day 21,"[3]; Cage 5, total 1,320 mg/kg",0/5
same,toxicity observations,"[3]; Cage 5, total 1,320 mg/kg",Toxicity was not reached
same,Day of Wt. Loss Nadir,"[3]; Cage 6, total 660 mg/kg",5 days
same,Drug Deaths (days of death),"[3]; Cage 6, total 660 mg/kg",0/5
same,Log Kill,"[3]; Cage 6, total 660 mg/kg",0.7
same,Mean Body Wt. Loss in g/mouse,"[3]; Cage 6, total 660 mg/kg",−0.4 g/mouse
same,Median tumor burden in mg on day 14 (range),"[3]; Cage 6, total 660 mg/kg",695 mg
same,Percent Body Wt. Loss,"[3]; Cage 6, total 660 mg/kg",−1.8%
same,T-C,"[3]; Cage 6, total 660 mg/kg",4.5 days
same,T/C %,"[3]; Cage 6, total 660 mg/kg",40%
same,Time to 1000 mg days (range),"[3]; Cage 6, total 660 mg/kg",15.5 days
same,Tumor Free on day 21,"[3]; Cage 6, total 660 mg/kg",0/5
same,Day of Wt. Loss Nadir,"[3]; Cage 7, total 330 mg/kg",6 days
same,Drug Deaths (days of death),"[3]; Cage 7, total 330 mg/kg",no lethality and 0/5
same,Log Kill,"[3]; Cage 7, total 330 mg/kg",0.3
same,Median tumor burden in mg on day 14 (range),"[3]; Cage 7, total 330 mg/kg",1273 mg
same,T-C,"[3]; Cage 7, total 330 mg/kg",2 days
same,T/C %,"[3]; Cage 7, total 330 mg/kg",74%
same,Time to 1000 mg days (range),"[3]; Cage 7, total 330 mg/kg",13 days
same,Tumor Free on day 21,"[3]; Cage 7, total 330 mg/kg",0/5
COc1c(Cl)ccc2ncc(Oc3ccc(OC(C)C(=O)N(C)C)cc3)nc12 (stereo not drawn) [Compound 14c],% Body Wt Loss at Nadir,[2]; [8],−5.8%
same,% T/C mass,[2]; [8],20%
same,Day of Nadir,[2]; [8],9 days
same,Drug Deaths,[2]; [8],0/5
same,Growth Delay,[2]; [8],5.5 days
same,Log Kill,[2]; [8],1.5
same,Median Tumor Mass on Day 9 (Range),[2]; [8],243
same,Tumor Free day-21,[2]; [8],0/5
same,% Body Wt Loss at Nadir,[2]; [9],+1.4%
same,% T/C mass,[2]; [9],31%
same,Activity Rating,[2]; [9],++ (1.3–1.9)
same,Day of Nadir,[2]; [9],9 days
same,Drug Deaths,[2]; [9],0/5
same,Growth Delay,[2]; [9],5.0 days
same,Log Kill,[2]; [9],1.4
same,Median Tumor Mass on Day 9 (Range),[2]; [9],369
same,Tumor Free day-21,[2]; [9],0/5
same,% Body Wt Loss at Nadir,[2]; [10],+0.0%
same,% T/C mass,[2]; [10],31%
same,Activity Rating,[2]; [10],+ (0.7–1.2)
same,Day of Nadir,[2]; [10],9 days
same,Drug Deaths,[2]; [10],0/5
same,Growth Delay,[2]; [10],3.5 days
same,Log Kill,[2]; [10],1.0
same,Median Tumor Mass on Day 9 (Range),[2]; [10],368
same,Tumor Free day-21,[2]; [10],0/5
same,% Body Wt Loss at Nadir,[2]; [11],−1.4%
same,% T/C mass,[2]; [11],55%
same,Activity Rating,[2]; [11],+ (0.7–1.2)
same,Day of Nadir,[2]; [11],11 days
same,Drug Deaths,[2]; [11],0/5
same,Growth Delay,[2]; [11],3.3 days
same,Log Kill,[2]; [11],0.9
same,Median Tumor Mass on Day 9 (Range),[2]; [11],660
same,Tumor Free day-21,[2]; [11],0/5
"CC(Oc1ccc(Oc2ccc3ccc(Cl)cc3n2)cc1)C(=O)N(C)C (stereo not drawn) [Compound 14e, 2-{4-((7-Chloro-2-quinolinyl)oxy)phenoxy}propiondimethylamide]",% Body Wt Loss at Nadir,[1]; [12],+4.3%
same,% T/C mass,[1]; [12],8.3%
same,Day of Nadir,[1]; [12],9 days
same,Drug Deaths,[1]; [12],0/5
same,Growth Delay,[1]; [12],16.5 days
same,Log Kill,[1]; [12],2.5
same,Median Tumor Mass on Day 14 (Range),[1]; [12],126
same,Tumor Free day-37,[1]; [12],0/5
same,toxicity observations,[1]; [12],no evident toxicity
same,% Body Wt Loss at Nadir,[1]; [13],+3.3%
same,% T/C mass,[1]; [13],15%
same,Activity Rating,[1]; [13],+++ (2.0–2.8)
same,Day of Nadir,[1]; [13],10 days
same,Drug Deaths,[1]; [13],0/5
same,Growth Delay,[1]; [13],14.5 days
same,Log Kill,[1]; [13],2.2
same,Median Tumor Mass on Day 14 (Range),[1]; [13],234
same,Tumor Free day-37,[1]; [13],0/5
same,% Body Wt Loss at Nadir,[1]; [14],0%
same,% T/C mass,[1]; [14],37%
same,Day of Nadir,[1]; [14],9 days
same,Drug Deaths,[1]; [14],0/5
same,Growth Delay,[1]; [14],3.5 days
same,Log Kill,[1]; [14],0.5
same,Median Tumor Mass on Day 14 (Range),[1]; [14],567
same,Tumor Free day-37,[1]; [14],0/5
CC(Oc1ccc(Oc2cnc3ccc(Cl)cc3n2)cc1)C(=O)NCCS(=O)(=O)[O-].[Na+] [Compound 14f (S)],Comments (activity rating),Human Melanoma LOX,Inactive
same,Drug Death (day of death),Human Melanoma LOX,0/5
same,Log Cell Kill,Human Melanoma LOX,0.3
same,Median Tumor Burden in mg on d 9 (range),Human Melanoma LOX,994 mg
same,T-C,Human Melanoma LOX,1.0 days
same,T/C %,Human Melanoma LOX,71%
same,Time to 1000 mg days (range),Human Melanoma LOX,9.0 days
same,Tumor Free on d 18,Human Melanoma LOX,0/5
"CC(Oc1ccc(Oc2cnc3ccc(Cl)cc3n2)cc1)C(=O)NCCS(=O)(=O)[O-].[Na+] (stereo not drawn) [Compound 14f, Sodium (2-(4-(7-chloro-2-quinoxalinyl)oxy)phenoxy)propionylamino ethanesulfonate]",Drug Death (day of death),[4]; [15],0/5
same,Log Cell Kill,[4]; [15],1.67
same,Median Tumor Burden in mg on d17 (range),[4]; [15],126 mg
same,T-C,[4]; [15],10.0 days
same,T/C %,[4]; [15],10%
same,Time to 1000 mg in days (range),[4]; [15],26 days
same,Tumor Free on d35,[4]; [15],0/5
same,Comments (activity rating),[4]; [16],Inactive
same,Drug Death (day of death),[4]; [16],0/5
same,Log Cell Kill,[4]; [16],0.58
same,Median Tumor Burden in mg on d17 (range),[4]; [16],600 mg
same,T-C,[4]; [16],3.5 days
same,T/C %,[4]; [16],50%
same,Time to 1000 mg in days (range),[4]; [16],19.5 days
same,Tumor Free on d35,[4]; [16],0/5
same,Comments (activity rating),[4]; [17],Inactive
same,Drug Death (day of death),[4]; [17],0/5
same,Log Cell Kill,[4]; [17],0.0
same,Median Tumor Burden in mg on d17 (range),[4]; [17],1420 mg
same,T-C,[4]; [17],0.0 days
same,T/C %,[4]; [17],>100%
same,Time to 1000 mg in days (range),[4]; [17],16 days
same,Tumor Free on d35,[4]; [17],0/5
same,Day of Wt. Loss Nadir,"[4]; mouse, in vivo",11 days
"CC(Oc1ccc(Oc2ccc3ccc(Br)cc3n2)cc1)C(=O)NCCS(=O)(=O)[O-].[Na+] (stereo not drawn) [Compound 14g, Sodium (2-(4-(7-bromo-2-quinolinyl)oxy)phenoxy)propionylamino ethanesulfonate]",Day of Wt. Loss Nadir,[5],4 days
same,Drug Death (day of death),[5],0/6
same,Log Cell Kill,[5],0.9
same,Mean Body Wt. Loss in g/mouse,[5],−2.3 g/mouse
same,Median Tumor Burden in mg on d 9 (range),[5],230 mg
same,T-C,[5],3.5 days
same,T/C %,[5],14%
same,"Time to 1,000 mg in days (range)",[5],11.5 days
same,day of full body weight recovery,[5],≤ 10 days
same,Percent Body Weight Loss,[5]; listed as 14g (Racemic),−11.0%
same,Tumor Free on d 161,[5]; listed as 14g (Racemic),1/6
same,Comments (activity rating),[5]; listed as 14g Racemic,+ (0.7–1.2)
same,Percent Body Weight Loss,[5]; listed as 14g Racemic,11%
same,Tumor Free on d 161,[5]; listed as 14g Racemic,One animal remained tumor free
same,Percent Body Weight Loss,[5]; listed as 14g racemic,−11%
same,Tumor Free on d 161,[5]; listed as 14g racemic,⅕

# Source: patent US7109341B2, “Therapeutic amides” (Wayne State University, priority 2002, dated 2006)
